Reference: patent US20060069084A1, “Methods of inhibiting kinases” (priority 2001, published 2006)

How the values were obtained:
Type in all cases: biochemical
Conditions in all cases: Table 6; inhibit 50% of activity at 50 μM
[1] = target: T1, JAK1 (Homo sapiens, UniProt P23458); assay: JAK1 kinase domain capture-based ELISA kinase assay
T1 construct: The kinase domain of humanJAK1 was amplified from U937mRNA; His tag (from pFastBac HTb vector; nickel chelate purification) (N); made in house; host or cells: baculovirus; virus made in Sf9, large-scale expression in High Five insect cells
Procedure: (§1) For screening purposes, compounds were diluted in 96 well plates at a concentration of 50 μM or 20 μM. Plates were warmed at 37° C. for 30 minutes before assay.
The kinase domain of humanJAK1 was amplified from U937mRNA using the polymerase chain reaction with the following primers: […]
JAK1 PCR products were cloned into the pFastBac HTb expression vector (Gibco) via the Xho I and Kpn I sites. The JAK1 plasmid was then transformed into competent DH10Bac cells (Gibco), and the recombinant baculovirus produced prepared for transfection into Sf9 insect cells.
(§2) Baculovirus preparations from each of the JAK family members were infected into five litres of High Five cells (Invitrogen) grown in High Five serum free medium (Invitrogen) to a cell density of approximately 1-2×10^6 cells/ml. Cells are infected with virus at a MOI of 0.8-3.0. Cells were harvested and lysed. JAK kinase domains were purified by affinity chromatography on a Probond (Invitrogen) nickel chelate affinity column.
(§3) The biotinylated substrate biotin-EGPWLEEEEEAYGWMDF-NH2 (SEQ ID NO:9) (final concentration 5 μM) was used as substrate, and tyrosine phosphorylation was quantitated following transfer to an avidin coated ELISA plate using peroxidase-linked anti-phospho-tyrosine antibody PY20.
(§4) Inhibitors were added to the assays fifteen minutes prior to the addition of ATP. Inhibitors were added in aqueous DMSO, with DMSO concentrations never exceeding 1%.

[2] = target: T2, TYK2 (Homo sapiens, UniProt P29597); assay: TYK2 kinase domain capture-based ELISA kinase assay
T2 construct: The kinase domain of humanTYK2 was amplified from A549 mRNA; His tag (from pBlueBacHis2A vector; nickel chelate purification) (N); made in house; host or cells: baculovirus; virus made in Sf9, large-scale expression in High Five insect cells
T2 sequence (P29597 897-1176 limits assumed): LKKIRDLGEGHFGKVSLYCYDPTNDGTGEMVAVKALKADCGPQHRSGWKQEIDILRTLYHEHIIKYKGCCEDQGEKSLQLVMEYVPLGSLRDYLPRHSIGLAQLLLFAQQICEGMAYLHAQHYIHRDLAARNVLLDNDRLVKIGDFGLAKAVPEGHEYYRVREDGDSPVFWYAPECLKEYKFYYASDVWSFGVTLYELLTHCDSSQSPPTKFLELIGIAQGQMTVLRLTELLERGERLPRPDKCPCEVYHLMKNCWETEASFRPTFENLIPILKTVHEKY
Procedure: as §1
The kinase domain of humanTYK2 was amplified from A549 mRNA using the polymerase chain reaction with the following primers: […]
TYK2 PCR products were cloned into pBlueBacHis2A (Invitrogen) via the EcoRI site. The recombinant TYK2 baculovirus produced was prepared for transfected into Sf9 insect cells.
as §2, §3, §4

[3] = target: T3, JAK2 (Homo sapiens, UniProt O60674); assay: JAK2 kinase domain capture-based ELISA kinase assay
T3 construct: The kinase domain of humanJAK2 was amplified from U937mRNA; His tag (from pFastBac HTc vector; nickel chelate purification) (N); made in house; host or cells: baculovirus; virus made in Sf9, large-scale expression in High Five insect cells
Procedure: as §1
The kinase domain of humanJAK2 was amplified from U937mRNA using the polymerase chain reaction with the following primers: […]
JAK2 PCR products were cloned into the pFastBac HTc expression vector (Gibco) via the Sal I and Not I sites. The JAK2 plasmid was then transformed into competent DH10Bac cells (Gibco), and the recombinant baculovirus produced prepared for transfection into Sf9 insect cells.
as §2, §3, §4

[4] = target: T4, JAK3 (Homo sapiens, UniProt P52333); assay: JAK3 kinase domain capture-based ELISA kinase assay
T4 construct: The kinase domain of humanJAK3 was amplified from U937mRNA; His tag (from pFastBac HTb vector; nickel chelate purification) (N); made in house; host or cells: baculovirus; virus made in Sf9, large-scale expression in High Five insect cells
Procedure: as §1
The kinase domain of humanJAK3 was amplified from U937mRNA using the polymerase chain reaction with the following primers: […]
JAK3 PCR products were cloned into the pFastBac HTb expression vector (Gibco) via the Xho I and Kpn I sites. The JAK3 plasmid was then transformed into competent DH10Bac cells (Gibco), and the recombinant baculovirus produced prepared for transfection into Sf9 insect cells.
as §2, §3, §4

T1 sequence (P23458 875-1153 limits assumed): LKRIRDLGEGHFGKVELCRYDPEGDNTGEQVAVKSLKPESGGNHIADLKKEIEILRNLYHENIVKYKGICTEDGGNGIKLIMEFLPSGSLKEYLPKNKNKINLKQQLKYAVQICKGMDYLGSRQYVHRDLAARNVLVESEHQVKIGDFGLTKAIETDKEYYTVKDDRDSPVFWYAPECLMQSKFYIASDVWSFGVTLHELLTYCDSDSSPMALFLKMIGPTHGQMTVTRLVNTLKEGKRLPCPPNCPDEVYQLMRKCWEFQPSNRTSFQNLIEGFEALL
T4 sequence (P52333 822-1111 limits assumed): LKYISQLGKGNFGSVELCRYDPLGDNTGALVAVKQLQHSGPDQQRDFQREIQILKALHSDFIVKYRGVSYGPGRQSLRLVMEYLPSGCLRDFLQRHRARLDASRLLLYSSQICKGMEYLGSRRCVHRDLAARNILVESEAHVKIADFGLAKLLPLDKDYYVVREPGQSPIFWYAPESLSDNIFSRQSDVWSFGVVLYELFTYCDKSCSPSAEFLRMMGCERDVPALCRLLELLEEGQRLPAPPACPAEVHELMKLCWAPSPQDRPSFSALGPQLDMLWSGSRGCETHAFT
T3 sequence (O60674 849-1124 limits assumed): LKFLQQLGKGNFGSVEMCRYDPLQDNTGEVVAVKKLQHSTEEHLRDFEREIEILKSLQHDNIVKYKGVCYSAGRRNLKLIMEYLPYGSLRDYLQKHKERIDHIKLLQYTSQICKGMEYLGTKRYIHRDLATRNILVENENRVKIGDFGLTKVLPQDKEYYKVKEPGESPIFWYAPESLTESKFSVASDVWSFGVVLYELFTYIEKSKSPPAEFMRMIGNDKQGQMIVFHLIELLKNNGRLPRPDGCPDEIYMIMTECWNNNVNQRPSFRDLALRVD

Compound | IC50 [1] [µM] | IC50 [2] [µM] | IC50 [3] [µM] | IC50 [4] [µM]
c1ccc(Nc2nc(-c3ccco3)cn3ccnc23)cc1 | > 50 | < 50 | < 50 | > 50
FC(F)(F)Oc1cccc(-c2cn3ccnc3c(Nc3ccccc3)n2)c1 | > 50 | > 50 | < 50 | > 50
c1ccc2cc(-c3cn4ccnc4c(Nc4ccc(N5CCOCC5)cc4)n3)ccc2c1 | < 50 | > 50 | < 50 | > 50
CN(C)CCNC(=O)c1cccc(-c2cn3ccnc3c(Nc3ccc(Cl)cc3)n2)c1 | < 50 | > 50 | < 50 | > 50
O=C(O)CCc1ccc(-c2cn3ccnc3c(NCCc3ccncc3)n2)cc1 | > 50 | > 50 | > 50 | < 50
Fc1ccccc1-c1cn2ccnc2c(NCCc2cccnc2)n1 | < 50 | > 50 | < 50 | < 50
CCNc1nc(-c2ccc(O)c(OC)c2)cn2ccnc12 | < 50 | > 50 | < 50 | < 50
O=C(O)CCc1ccc(-c2cn3ccnc3c(NCc3ccco3)n2)cc1 | > 50 | < 50 | > 50 | < 50
CC(=O)Nc1ccc(Nc2nc(-c3ccc4c(c3)OCO4)cn3ccnc23)cc1 | < 50 | < 50 | < 50 | < 50
Cc1ccc(S(=O)(=O)Nc2ccc(Nc3nc(-c4ccc(CCC(=O)O)cc4)cn4ccnc34)cc2)cc1 | < 50 | < 50 | < 50 | > 50
CCCNc1nc(-c2cccc(N)c2)cn2ccnc12 | < 50 | > 50 | > 50 | > 50
c1coc(-c2cn3ccnc3c(Nc3ccc(N4CCOCC4)cc3)n2)c1 | < 50 | < 50 | < 50 | > 50

Next, values leading:

IC50 [1] [µM] | IC50 [2] [µM] | IC50 [3] [µM] | IC50 [4] [µM] | Compound
< 50 | < 50 | < 50 | > 50 | Fc1ccccc1-c1cn2ccnc2c(Nc2ccc(N3CCOCC3)cc2)n1
< 50 | < 50 | > 50 | > 50 | Fc1ccc(-c2cn3ccnc3c(Nc3ccc4[nH]ccc4c3)n2)cc1Cl
< 50 | > 50 | < 50 | > 50 | COc1ccc(Nc2nc(-c3ccccc3F)cn3ccnc23)cn1
< 50 | < 50 | < 50 | > 50 | Brc1cn2ccnc2c(Nc2ccccc2)n1
< 50 | > 50 | > 50 | > 50 | CCNc1nc(-c2ccc(N(C)C)cc2)cn2ccnc12
< 50 | < 50 | < 50 | > 50 | NCc1cccc(-c2cn3ccnc3c(Nc3ccccc3)n2)c1
< 50 | < 50 | < 50 | > 50 | c1cn2cc(-c3ccc4c(c3)OCO4)nc(Nc3ccc(N4CCOCC4)cc3)c2n1
< 50 | < 50 | < 50 | > 50 | COc1ccccc1-c1cn2ccnc2c(Nc2ccc(N3CCOCC3)cc2)n1
< 50 | > 50 | > 50 | > 50 | CN1CCCN(c2nc(-c3cccc4ccccc34)cn3ccnc23)CC1
< 50 | < 50 | < 50 | > 50 | COc1ccccc1-c1cn2ccnc2c(Nc2ccc(CCO)cc2)n1
< 50 | < 50 | < 50 | > 50 | Cc1ccc(Nc2nc(-c3ccccc3Cl)cn3ccnc23)cc1NS(C)(=O)=O
< 50 | < 50 | < 50 | > 50 | O=C(NCCO)c1ccc(-c2cn3ccnc3c(Nc3ccccc3)n2)cc1
< 50 | > 50 | < 50 | > 50 | COc1cc(-c2cn3ccnc3c(Nc3ccccc3)n2)cc(OC)c1OC
